target: T1, recombinant guanylate cyclase reporter cell line (Rattus norvegicus, UniProt P19686+P20595); assay: B-2. Action on recombinant guanylate cyclase reporter cell line; format: cell-based; details: MEC = minimal effective concentration; in some cases mean values from individual determinations
T1 construct: expressed in transfected cells
T1 sequence (P20595 1-619): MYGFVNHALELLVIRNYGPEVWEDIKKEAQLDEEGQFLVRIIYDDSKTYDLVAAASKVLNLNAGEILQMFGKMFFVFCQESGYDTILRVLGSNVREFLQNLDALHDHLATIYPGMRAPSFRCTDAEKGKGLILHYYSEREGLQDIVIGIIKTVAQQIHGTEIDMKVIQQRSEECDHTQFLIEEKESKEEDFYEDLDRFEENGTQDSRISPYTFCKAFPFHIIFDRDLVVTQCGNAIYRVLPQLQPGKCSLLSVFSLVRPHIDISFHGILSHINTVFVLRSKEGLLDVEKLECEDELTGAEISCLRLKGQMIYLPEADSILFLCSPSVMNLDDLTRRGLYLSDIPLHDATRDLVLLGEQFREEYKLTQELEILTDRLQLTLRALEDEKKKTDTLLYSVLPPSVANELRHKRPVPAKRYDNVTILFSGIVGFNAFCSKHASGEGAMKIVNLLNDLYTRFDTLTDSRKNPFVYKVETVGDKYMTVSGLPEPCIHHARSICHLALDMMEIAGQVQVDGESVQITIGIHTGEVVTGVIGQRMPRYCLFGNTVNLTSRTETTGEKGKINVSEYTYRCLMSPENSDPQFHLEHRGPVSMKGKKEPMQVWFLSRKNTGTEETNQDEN
T1 sequence (P19686 1-690): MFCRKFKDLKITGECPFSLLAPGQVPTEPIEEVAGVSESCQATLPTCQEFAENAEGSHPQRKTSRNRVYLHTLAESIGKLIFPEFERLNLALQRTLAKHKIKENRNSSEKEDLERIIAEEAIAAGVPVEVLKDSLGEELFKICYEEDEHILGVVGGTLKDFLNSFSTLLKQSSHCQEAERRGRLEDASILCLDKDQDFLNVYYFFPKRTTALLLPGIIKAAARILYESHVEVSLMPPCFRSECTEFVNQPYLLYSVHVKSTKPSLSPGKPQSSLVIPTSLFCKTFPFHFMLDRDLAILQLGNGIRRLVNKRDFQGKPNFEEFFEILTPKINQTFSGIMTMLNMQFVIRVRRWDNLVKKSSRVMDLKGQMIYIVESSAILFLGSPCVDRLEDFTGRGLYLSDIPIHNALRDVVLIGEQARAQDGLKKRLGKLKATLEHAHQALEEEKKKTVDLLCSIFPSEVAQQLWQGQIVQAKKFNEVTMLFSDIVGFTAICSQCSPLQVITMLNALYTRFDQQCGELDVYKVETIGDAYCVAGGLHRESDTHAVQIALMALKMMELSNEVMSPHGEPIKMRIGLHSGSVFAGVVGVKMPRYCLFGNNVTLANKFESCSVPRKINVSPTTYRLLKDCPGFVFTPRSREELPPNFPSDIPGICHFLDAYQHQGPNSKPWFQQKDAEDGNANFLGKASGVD
Experimental: B-2. Action on Recombinant Guanylate Cyclase Reporter Cell Line
The cellular action of the compounds according to the invention is determined on a recombinant guanylate cyclase reporter cell line, as described in F. Wunder et al., Anal. Biochem. 339, 104-112 (2005).
Representative MEC values (MEC=minimal effective concentration) for the compounds according to the invention are shown in the following table (in some cases as mean values obtained from individual determinations): […]

MEC [µM] | Structure (SMILES)
0.30 | Cc1nc2c(OCc3c(F)cccc3F)cccn2c1C(=O)NCC(N)CC(F)(F)F (single isomer, unassigned) [Example 126, ent-N-(2-Amino-4,4,4-trifluorobutyl)-8-[(2,6-difluorobenzyl)oxy]-2-methylimidazo[1,2-a]pyridine-3-carboxamide]
0.30 | Cc1nc2c(OCc3c(F)cccc3F)cccn2c1C(=O)NC1CNCc2ccccc21 (single isomer, unassigned; ent-8) [Example 110, ent-8-[(2,6-difluorobenzyl)oxy]-2-methyl-N-(1,2,3,4-tetrahydroisoquinolin-4-yl)imidazo[1,2-a]pyridine-3-carboxamide]
0.30 | Cc1cc(OCc2c(F)cccc2F)c2nc(C)c(C(=O)NC(CN)c3cccc(C(F)(F)F)c3)n2c1 (racemic) [Example 394, rac-N-{2-amino-1-[3-(trifluoromethyl)phenyl]ethyl}-8-[(2,6-difluorobenzyl)oxy]-2,6-dimethylimidazo[1,2-a]pyridine-3-carboxamide]
0.30 | Cc1cc(OCc2c(F)cccc2F)c2nc(C)c(C(=O)NC(CN)c3ccc([N+](=O)[O-])cc3)n2c1 (racemic) [Example 384, rac-N-[2-amino-1-(4-nitrophenyl)ethyl]-8-[(2,6-difluorobenzyl)oxy]-2,6-dimethylimidazo[1,2-a]pyridine-3-carboxamide]
0.20 | CCCC(C)(N)CNC(=O)c1c(C)nc2c(OCc3cccc(F)c3F)cc(C)cn12 (racemic) [Example 303, rac-N-(2-amino-2-methylpentyl)-8-[(2,3-difluorobenzyl)oxy]-2,6-dimethylimidazo[1,2-a]pyridine-3-carboxamide]
1.00 | Cc1nc2c(OCc3c(F)cccc3F)cccn2c1C(=O)NC12CNCCC1C2 (single isomer, unassigned) [Example 185, ent-N-(3-Azabicyclo[4.1.0]hept-1-yl)-8-[(2,6-difluorobenzyl)oxy]-2-methylimidazo[1,2-a]pyridine-3-carboxamide]
3.00 | Cc1nc2c(OCc3c(F)cccc3F)cccn2c1C(=O)NC(CN1CCOCC1)c1ccccc1 (single isomer, unassigned; ent-8) [Example 182, ent-8-[(2,6-Difluorobenzyl)oxy]-2-methyl-N-[2-(morpholin-4-yl)-1-phenylethyl]imidazo[1,2-a]-pyridine-3-carboxamide]
3.00 | COCC(CN)NC(=O)c1c(C)nc2c(OCc3c(F)cccc3F)cccn12 (single isomer, unassigned) [Example 123, ent-N-(1-Amino-3-methoxypropan-2-yl)-8-[(2,6-difluorobenzyl)oxy]-2-methylimidazo[1,2-a]-pyridine-3-carboxamide Ditrifluoroacetate]
1.00 | Cc1nc2c(OCc3c(F)cccc3F)cccn2c1C(=O)NCC(C)N1CCOCC1 (racemic) [Example 132, rac-8-[(2,6-difluorobenzyl)oxy]-2-methyl-N-[2-(morpholin-4-yl)propyl]imidazo[1,2-a]pyridine-3-carboxamide]
0.30 | Cc1cc(OCc2c(F)cccc2F)c2nc(C)c(C(=O)NCC(C)N3CCOCC3)n2c1 (racemic) [Example 138, rac-8-[(2,6-difluorobenzyl)oxy]-2,6-dimethyl-N-[2-(morpholin-4-yl)propyl]imidazo[1,2-a]-pyridine-3-carboxamide]
3.00 | Cc1cc(OCc2c(F)cccc2F)c2nc(C)c(C(=O)NCC(N)c3cnn(C)c3)n2c1 (racemic) [Example 370, rac-N-[2-amino-2-(1-methyl-1H-pyrazol-4-yl)ethyl]-8-[(2,6-difluorobenzyl)oxy]-2,6-dimethylimidazo[1,2-a]pyridine-3-carboxamide]
0.30 | Cc1cc(OCc2c(F)cccc2F)c2nc(C)c(C(=O)NC(CN)c3cc(F)c(F)c(F)c3)n2c1 (racemic) [Example 390, rac-N-[2-amino-1-(3,4,5-trifluorophenyl)ethyl]-8-[(2,6-ifluorobenzyl)oxy]-2,6-dimethylimidazo[1,2-a]pyridine-3-carboxamide]
0.30 | Cc1cc(OCc2c(F)cccc2F)c2nc(C)c(C(=O)NC(CN)c3ccc4c(c3)OCO4)n2c1 (racemic) [Example 381, rac-N-[2-amino-1-(1,3-benzodioxol-5-yl)ethyl]-8-[(2,6-difluorobenzyl)oxy]-2,6-dimethylimidazo[1,2-a]pyridine-3-carboxamide]
0.30 | Cc1nc2c(OCc3c(F)cccc3F)cc(Cl)cn2c1C(=O)NCC(C)(N)C(F)(F)F (single isomer, unassigned) [Example 237, ent-N-(2-Amino-3,3,3-trifluoro-2-methylpropyl)-6-chloro-8-[(2,6-difluorobenzyl)oxy]-2-methylimidazo[1,2-a]pyridine-3-carboxamide]
0.30 | Cc1nc2c(OCc3c(F)cccc3F)cc(Cl)cn2c1C(=O)NCCN1C[C@@H](C)O[C@@H](C)C1 [Example 158, 6-chloro-8-[(2,6-difluorobenzyl)oxy]-N-{2-[(2R,6S)-2,6-dimethylmorpholin-4-yl]ethyl}-2-methylimidazo[1,2-a]pyridine-3-carboxamide]
0.30 | Cc1cc(OCc2c(F)cccc2F)c2nc(C)c(C(=O)NC3CCC3N)n2c1 (single isomer, unassigned; enantiomer b) [Example 329, ent-N-(2-aminocyclobutyl)-8-[(2,6-difluorobenzyl)oxy]-2,6-dimethylimidazo[1,2-a]pyridine-3-carboxamide (Enantiomer B)]
1.00 | Cc1cc(OCc2c(F)cccc2F)c2nc(C)c(C(=O)NCC(N)c3cc(F)c(F)c(F)c3)n2c1 (racemic) [Example 374, rac-N-[2-amino-2-(3,4,5-trifluorophenyl)ethyl]-8-[(2,6-difluorobenzyl)oxy]-2,6-dimethylimidazo[1,2-a]pyridine-3-carboxamide]
1.00 | COc1cccc(C(N)CNC(=O)c2c(C)nc3c(OCc4c(F)cccc4F)cc(C)cn23)c1 (racemic) [Example 378, rac-N-[2-amino-2-(3-methoxyphenyl)ethyl]-8-[(2,6-difluorobenzyl)oxy]-2,6-dimethylimidazo[1,2-a]pyridine-3-carboxamide]
1.00 | Cc1nc2c(OCc3c(F)cccc3F)cccn2c1C(=O)NCC(C(C)C)N(C)C (racemic) [Example 142, rac-8-[(2,6-difluorobenzyl)oxy]-N-[2-(dimethyl-amino)-3-methylbutyl]-2-methylimidazo[1,2-a]-pyridine-3-carboxamide]
0.10 | CCCC(C)(N)CNC(=O)c1c(C(F)(F)F)nc2c(OCc3c(F)cccc3F)cc(C)cn12 (stereo not drawn) [Example 305, ent-N-(2-amino-2-methylpentyl)-8-[(2,6-difluorobenzyl)oxy]-6-methyl-2-(trifluoromethyl)imidazo[1,2-a]pyridine-3-carboxamide]
3.00 | Cc1cc(OCc2c(F)cccc2F)c2nc(C)c(C(=O)NCCN3CC(N4CCCC4)C3)n2c1 [Example 162, 8-[(2,6-difluorobenzyl)oxy]-2,6-dimethyl-N-{2-[3-(pyrrolidin-1-yl)azetidin-1-yl]ethyl}imidazo[1,2-a]pyridine-3-carboxamide]
0.30 | Cc1nc2c(OCc3c(F)cccc3F)cccn2c1C(=O)NCC(N)C(F)(F)C(F)F (single isomer, unassigned) [Example 231, ent-N-(2-Amino-3,3,4,4-tetrafluorobutyl)-8-[(2,6-difluorobenzyl)oxy]-2-methylimidazo[1,2-a]-pyridine-3-carboxamide]
3.00 | COc1cccc(F)c1COc1cc(C)cn2c(C(=O)NCC(C)(C)N)c(C)nc12 [Example 352, N-(2-amino-2-methylpropyl)-8-[(2-fluoro-6-methoxybenzyl)oxy]-2,6-dimethylimidazo[1,2-a]pyridine-3-carboxamide]
